According to PMC6788984, “High-potency ligands for DREADD imaging and activation in rodents and monkeys” (Nature Communications, 2019):
Several values for one entry are separate records, joined by “and”; a condition that tells them apart may be missing. Equal entries are not always repeated.

Legend:
WT mice = experiment: [18F]FDG PET metabolic mapping in WT mice; format: in vivo, mouse
Procedure: Mice (D1-hM3Dq, D1-hM4Di or WT littermates, see above) were habituated to experimenter handling and fasted 16 h before the experiment. On the day of the experiment, mice received an IP injection of vehicle (1 ml kg^−1) and were placed back into their home cages. Ten minutes later, mice were injected (IP) with 11 MBq of 2-deoxy-2-[^18F]fluoro-D-glucose (FDG, Cardinal Health) and placed back into their home cages. After 30 min, mice were anesthetized with 1.5% isoflurane, placed on a custom-made bed of a nanoScan small animal PET/CT scanner (Mediso Medical Imaging Systems) and scanned for 20 min on a static acquisition protocol, followed by a CT scan. […] Voxel-based repeated measures with Student’s t test comparing baseline to drug were performed, and the resulting parametric images were filtered for statistically significant (p < 0.05) clusters larger than 100 contiguous voxels. All statistical parametric mapping analyses were performed using Matlab R2016 (Mathworks) and SPM12 (University College London).

endogenous binding sites = format: in vivo; conditions: monkey
Procedure: (§1) All macaque studies were acquired dynamically on the Focus 220 PET scanner (Siemens Medical Solutions, Knoxville, TN). The Focus 220 is a dedicated pre-clinical scanner with a transaxial FOV of 19 cm and an axial FOV of 7.5 cm. Image resolution is <2 mm within the central 5 cm FOV.
(§2) After initial evaluation the monkey was sedated with ketamine (10 mg kg^−1) followed by ketoprofen (as an analgesic) and glycopyrrolate (for salvia reduction), all weight dependent IM injections. The monkey would then be placed in the supine position, intubated with a tracheal tube. Anesthesia was maintained by 1–3.5% isoflurane and oxygen, the monkey’s head was positioned and immobilized for optimal positioning of the brain and moved into the scanner. A 10-min transmission scan using a Co-57-point source for attenuation correction was performed. One iv was inserted, if possible, in the right arm and one in the right leg for injection of tracer and blocking agent. The monkey was always monitored while anesthetized. HR, BP, O2 saturation, RR, three lead ECG, rectal temperature was documented every 15 min.
Arterial blood sampling was acquired throughout the study using an indwelling femoral port. The first 2 min samples were collected every 15 s then at 3, 5, 10, 30, 60, 90, and 120 min post tracer injection. All scans were acquired for 120 min using list mode acquisition. […]
To determine the arterial input function for the radiotracers injected in rhesus monkeys radioligand concentrations in the arterial plasma were corrected by the unchanged parent fraction. […] The unchanged plasma parent fractions were determined by radio-HPLC on an X-terra® C18 column (10 µm, 7.8 mm × 300 mm, Waters Corp., Milford, MA), and eluted with MeOH:H2O:Et3N (80:20:0.1; by volume) at an isocratic flow rate of 4.0 mL min^−1. Eluates were monitored with an in-line flow-through NaI(Tl) scintillation detector (Bioscan). Data were stored and analyzed on a PC using the software “Bio-ChromeLite”. […] Plasma free fraction was determined according to our previous methods.

hM4Di = molecular target: T1, hM4Di (Homo sapiens, UniProt P08173, A203G/Y113C); experiment: [11C]clozapine PET occupancy in monkey expressing hM4Di in the amygdala; format: in vivo, rhesus monkey (Macaca mulatta); set-up: expressed in transfected cells; host or cells: rhesus monkey (Macaca mulatta) right amygdala, lentivirus-transduced neurons
T1 sequence (P08173 1-479 Y113C/A203G): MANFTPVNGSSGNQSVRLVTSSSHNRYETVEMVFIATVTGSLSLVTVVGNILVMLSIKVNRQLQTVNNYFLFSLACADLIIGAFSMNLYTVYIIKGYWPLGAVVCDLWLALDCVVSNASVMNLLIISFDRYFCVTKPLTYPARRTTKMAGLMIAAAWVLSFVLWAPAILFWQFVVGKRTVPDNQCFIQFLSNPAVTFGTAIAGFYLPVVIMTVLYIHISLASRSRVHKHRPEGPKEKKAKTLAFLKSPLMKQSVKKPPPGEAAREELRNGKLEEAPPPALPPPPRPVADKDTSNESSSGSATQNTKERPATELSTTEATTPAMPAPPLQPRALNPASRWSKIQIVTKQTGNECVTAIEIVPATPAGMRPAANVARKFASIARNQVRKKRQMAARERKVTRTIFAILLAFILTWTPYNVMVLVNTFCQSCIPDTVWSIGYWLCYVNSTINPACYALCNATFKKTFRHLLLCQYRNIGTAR
Procedure: Lentivirus expressing an hM4Di-CFP fusion protein under an hSyn promoter[11] with a titer of >10^9 infectious particles was loaded into a 100 µL glass syringe (Hamilton Co., MA). The 31-gauge needle of the syringe was sheathed with a silica capillary (450 µm OD) to create a step 1 mm from the base of the aperture. The syringe was mounted in a Nanomite pump (Harvard Apparatus, Cambridge, MA). The needle was lowered through the incision in the dura mater to each of the pre-calculated target sites and 10 or 20 µL was infused at a rate of 1 µL min^−1. Each monkey received a total of between 10 and 12 injections (for a total injection volume of 120–240 µL). Post-infusion, the needle was left in situ for 10 min after each injection to allow pressure from the infusate to dissipate. The needle was then slowly removed. At the completion of the injection series the soft tissues were sutured together in anatomical layers.
as §1, §2
Arterial blood sampling was acquired throughout the study using an indwelling femoral port. The first 2 min samples were collected every 15 s then at 3, 5, 10, 30, 60, 90, and 120 min post tracer injection. All scans were acquired for 120 min using list mode acquisition.
Scan data were histogrammed into 33 frames (6 × 30 s, 3 × 1 min, 2 × 2 min, and 22 × 5 min). Reconstruction was performed by Filtered Back Projection with scatter correction. After completion of the last study of the day, isoflurane was cut off. The monkey was gradually awakened, moved to the housing facility and fully recovered.

[1] = tested on: endogenous clozapine-binding sites; experiment: Autoradiography: displacement of [3H]clozapine in WT / non-DREADD mouse brain tissue; conditions: individual values
Excerpt: Flash frozen tissue (both rodents and the monkey) was sectioned (20 µm) on a cryostat (Leica, Germany) and thaw mounted onto ethanol-washed glass slides. […] Slides were air dried and placed in a Hypercassette™ (Amersham Biosciences) and covered with a BAS-TR2025 Storage Phosphor Screen (FujiFilm, Japan). The slides were exposed to the screen for 5–7 days and imaged using a phosphor imager (Typhoon FLA 7000; GE Healthcare).

c1ccc2c(c1)N=C(N1CCNCC1)c1ccccc1N2 [C21]
brain metabolic activity ([18F]FDG) (WT mice; 1 mg/kg IP, 1 mg/kg): significant changes in brain metabolic activity
brain metabolic activity ([18F]FDG) (WT mice; 1 mg/kg IP, listed as Compound 21, 1 mg/kg): decreased metabolic activity of multiple networks
off-target effects (endogenous binding sites; 10 mg/kg): extensive displacement of [^11C]clozapine binding at endogenous binding sites and non-specific effects
in vivo DREADD occupancy (hM4Di; 1 mg/kg IV): no measurable occupancy
hM4Di occupancy (hM4Di; 10 mg/kg): ~ 50%

CCN1CCN(C2=Nc3cc(Cl)ccc3Nc3cccc(F)c32)CC1 [JHU37152, 8-Chloro-11-(4-ethylpiperazin-1-yl)-1-fluoro-5H-dibenzo[b,e][1,4]diazepine]
[3H]CLZ binding in mouse brain sections, WT ([1]; competitor concentration 0.001, listed as J52): 119.578 and 91.3526 and 103.192 and 105.979 and 100.87 and 101.941
[3H]CLZ binding in mouse brain sections, WT ([1]; competitor concentration 0.01, listed as J52): 85.3632 and 98.6721 and 100.487 and 96.5233 and 115.016 and 88.1843
[3H]CLZ binding in mouse brain sections, WT ([1]; competitor concentration 1, listed as J52): 68.3087 and 51.6943 and 71.7816 and 75.1729 and 78.8993 and 70.8806

CCN1CCN(C2=Nc3cc(Cl)ccc3Nc3c(F)cccc32)CC1 [JHU37160, 8-Chloro-11-(4-ethylpiperazin-1-yl)-4-fluoro-5H-dibenzo[b,e][1,4]diazepine]
[3H]CLZ binding in mouse brain sections, WT ([1]; competitor concentration 0.001, listed as J60): 106.379 and 101.292 and 102.926 and 122.941 and 108.508 and 97.311
[3H]CLZ binding in mouse brain sections, WT ([1]; competitor concentration 0.01, listed as J60): 120.43 and 105.789 and 111.318 and 118.633 and 118.689 and 124.215
[3H]CLZ binding in mouse brain sections, WT ([1]; competitor concentration 1, listed as J60): 55.5737 and 82.7293 and 46.5386 and 44.7797 and 54.5308 and 62.9299
brain metabolic activity ([18F]FDG) (WT mice; 0.1 mg/kg): no significant brain metabolic changes
brain metabolic activity ([18F]FDG) (WT mice; 0.1 mg/kg, listed as J60, 0.1 mg/kg): did not show any significant changes in brain metabolic activity
[11C]clozapine binding after drug, L_Amygdala (endogenous binding sites; 0.1 mg kg-1): 0.2865
[11C]clozapine binding after drug, PFC (endogenous binding sites; 0.1 mg kg-1): 0.3429
[11C]clozapine displacement at hM4Di expressed in the amygdala (hM4Di; 0.1 mg kg-1 (lesser extent 0.01 mg kg-1)): produced [^11C]clozapine DREADD displacement at hM4Di
[11C]clozapine binding after drug, R_Amygdala (hM4Di; 0.1 mg kg-1, hM4Di-expressing region): 0.6176
